Legend:
Format in all cases: functional, Homo sapiens
Parameters in all cases: dose or concentration left out as unconfirmed
[1] = tested on: Colon cancer organoid; test: Optimized Dual-Glo assay to identify co-culture induced drug vulnerabilities using donated chemical probes and chemogenomics kinase set in O20 CRC organoid and F20 CAF mono and co-culture. […] Cell viability is reported both mono and co-culture models.
[2] = tested on: Colon cancer organoid; test: Optimized Dual-Glo assay to identify co-culture induced drug vulnerabilities using donated chemical probes and chemogenomics kinase set in O06 CRC organoid and F06 CAF mono and co-culture. […] Cell viability is reported both mono and co-culture models.
[3] = tested on: Colon cancer organoid; test: Optimized Dual-Glo assay to identify co-culture induced drug vulnerabilities using donated chemical probes and chemogenomics kinase set in O14 CRC organoid and F14 CAF mono and co-culture. […] Cell viability is reported both mono and co-culture models.
[4] = Culture type Co-Culture, Transduced with Lucferase2-P2A-EGFP lentivirus
[5] = Culture type Co-Culture, Transduced with Renilla-dsRed lentivirus
[6] = Culture type Mono-Culture, Transduced with Lucferase2-P2A-EGFP lentivirus
[7] = Culture type Mono-Culture, Transduced with Renilla-dsRed lentivirus

Row | SMILES | Cell Viability [1, 4] | Cell Viability [1, 5] | Cell Viability [1, 6] | Cell Viability [1, 7] | Cell Viability [2, 4] | Cell Viability [2, 5] | Cell Viability [2, 6] | Cell Viability [2, 7] | Cell Viability [3, 4] | Cell Viability [3, 5] | Cell Viability [3, 6] | Cell Viability [3, 7]
1 | CCC(=O)Nc1cccc(Oc2nc(Nc3ccc(N4CCN(C)CC4)cc3OC)ncc2Cl)c1 | 125.445% | 105.023% | 80.3355% | 88.9581% | 92.8013% | 94.5997% | 65.5336% | 70.4946% | 114.921% | 101.654% | 90.6079% | 93.4216%
2 | O=C(O)c1ccc(-c2coc3ncc(-c4ccccc4)cc23)cc1Cl | 189.357% | 126.188% | 202.493% | 116.18% | 226.279% | 119.386% | 202.946% | 112.766% | 199.753% | 90.4064% | 200.801% | 87.3818%
3 | CNc1nc(-c2ccc3c(N)n[nH]c3c2)cc(N2C[C@@H](C(=O)NC3CCCCC3)CC[C@H]2C)n1 | 51.6899% | 121.574% | 29.0897% | 81.2947% | 59.8926% | 53.4401% | 68.2825% | 54.6916% | 75.802% | 81.9858% | 103.482% | 52.6977%
4 | Cc1c(N2CCNCC2)nc2ccc(Br)cc2c1C(=O)NC[C@H](CCC(=O)O)c1ccccc1Cl [BAY-403] | 119.673% | 79.2483% | 97.0551% | 97.643% | 78.4474% | 70.4581% | 95.2254% | 113.122% | 128.287% | 83.5136% | 111.567% | 88.9346%
5 | CC(C)C(=O)Nc1n[nH]c2cc(-c3cccc(NS(=O)(=O)C4CC4)c3)ccc12 | 85.5363% | 102.387% | 113.542% | 124.62% | 155.711% | 134.333% | 107.561% | 124.696% | 100.589% | 100.218% | 136.967% | 94.5263%
6 | COc1ccc(Cn2ccc3ccc(C(=O)NO)cc32)cc1 | 176.611% | 111.53% | 111.23% | 102.771% | 111.578% | 129.424% | 126.919% | 118.855% | 71.3405% | 118.85% | 119.497% | 102.466%
7 | Cc1nc(NC(=O)N2CCC[C@H]2C(N)=O)sc1-c1ccnc(C(C)(C)C(F)(F)F)c1 [ALPELISIB] | 70.7946% | 99.8659% | 21.7931% | 78.1697% | 74.6278% | 68.5217% | 72.4718% | 69.5837% | 44.356% | 105.185% | 47.7974% | 68.4414%
8 | COc1cccc(CNC(=O)c2nc3scc(CN(C)Cc4ccccc4)c3c(=O)[nH]2)c1 [T-26f] | 156.545% | 109.586% | 116.769% | 103.534% | 114.676% | 151.389% | 102.721% | 101.465% | 86.5179% | 95.8142% | 82.3734% | 95.7877%
9 | CCOc1ccn(-c2ccc(F)cc2)c(=O)c1C(=O)Nc1ccc(Oc2ccnc(N)c2Cl)c(F)c1 [BMS-777607] | 100.473% | 72.8578% | 109.106% | 74.8704% | 91.8113% | 94.0587% | 160.363% | 101.253% | 80.1334% | 87.7624% | 119.97% | 83.2963%

Source: ChEMBL document CHEMBL5674860, “Optimized Dual-Glo Assay to identify co-culture-induced drug vulnerabilities in 3D CRC models” (2024)
